Read-outs that look alike come from different tables or passages of the source.
Key:
[1] = tested on: tumor angiogenesis, growth and metastasis; design: method as in PMID 15960897; conditions: in vivo; cited from earlier work
[2] = Pharmacokinetic study in rats after single oral administration of GLB (HPLC-UV in plasma); type: in vivo, Sprague-Dawley rats; conditions: for concentration at 0.5 h / concentration at 1 h / concentration at 2 h / concentration at 4 h / concentration at 6 h / concentration at 8 h / concentration at 12 h / concentration at 24 h / concentration at 36 h / concentration at 48 h / concentration at 72 h / concentration at 96 h: oral; for concentration at 0.5 h: 0.5 h after single oral GLB 100 mg/kg; for concentration at 1 h: 1 h after single oral GLB 100 mg/kg; for concentration at 2 h: 2 h after single oral GLB 100 mg/kg; for concentration at 4 h: 4 h after single oral GLB 100 mg/kg; for concentration at 6 h: 6 h after single oral GLB 100 mg/kg; for concentration at 8 h: 8 h after single oral GLB 100 mg/kg; for concentration at 12 h: 12 h after single oral GLB 100 mg/kg; for concentration at 24 h: 24 h after single oral GLB 100 mg/kg; for concentration at 48 h: 48 h after single oral GLB 100 mg/kg; for concentration at 72 h: 72 h after single oral GLB 100 mg/kg; for concentration at 96 h: 96 h after single oral GLB 100 mg/kg; for Tmax / half-life / Cmax / AUC(0-inf) / AUC(0-t): rat plasma, single oral GLB 100 mg/kg; for AUC(0-t): read-out: AUC(0-96)
Protocol: The validated bioanalytical method was applied to the detection of GLB concentration in plasma after a single oral administration of GLB (100 mg/kg, n = 6) in rats. At 0.5 h after oral administration, the prototype drug of GLB was detected in rat plasma. The peak concentration of GLB was at 6 h (2.78 ± 0.89 μg/mL) with quantifiable at the 36 h (0.14 ± 0.18 μg/mL). At 96 h time point, low concentration of GLB was still detectable in rat plasma (Fig. 2B).
HPLC-UV analyses were performed with a DIONEX Ultimate 3000 HPLC system (Thermo Fisher Scientific, MA, USA), which included a double-ternary pump (DGP-3600SD), a temperature controlled automatic sampler (WPS-3000SL), a column temperature box (TCC-3000SD), and a ultraviolet (UV) detector (VWD-3400). The UV detection wavelength was set at 300 nm. The chromatographic separation was achieved on a reversed-phase Alltima C18 analytical column (150 mm × 4.6 mm; 5 μm), and the mobile phase was the mixture of acetonitrile and distilled water (65:35, v/v), running at the flow rate of 1.0 mL/min. The temperature of column box was kept at 25 °C. The injection volume was 20 μL. The HPLC data was processed using Chromeleon^TM 6.8 software (Thermo Fisher Scientific, MA, USA).
Sprague-Dawley rats (Male, 210 ± 20 g, 7–8 weeks) were provided by the Department of Experimental Animal, Beijing University (Beijing, China). Environmental controls for the animal room were set at 22 ± 3 °C with 50 ± 20% relative humidity. This animal study was performed in strict accordance with the recommendations in the Guide for the Care and Use of Laboratory Animals of China Association for Laboratory Animal Science. All animal care and experimental protocols were approved by the Animal Care Committee of Peking University Health Science Center. All sacrifice was performed under pentobarbitone anesthesia, and every effort was made to minimize suffering.
Rats were fasted 12 h prior to the study and were allowed access to food 4 h after oral dosing. Eighteen rats were divided randomly into six groups and rats were sampled at interval in each group. The blood samples at each time point were collected from six rats. The rats were dosed with a suspension of GLB (100 mg/kg, in 0.5% sodium carboxymethyl cellulose CMC-Na solution) and the blood samples were collected at the predose, 0.5, 1, 2, 4, 6, 8, 12, 24, 36, 48, 72 and 96 h post-dosing. The blood samples were centrifuged at 2800 rpm (1473 × g) for 20 min and the plasma was stored at −20 °C until analyzed.
The 400 μL plasma sample was transferred into a glass tube, followed by the addition of 25 μL of IS and 2 mL of extraction solvent ethyl acetate. The mixture was vortexed for 3 min to extract GLB and IS from plasma sample and then centrifuged at 2800 rpm (1473 × g) for 20 min. The upper organic phase was transferred into a glass tube. The sample was extracted twice with 2 mL of ethyl acetate for liquid-liquid extraction. The combined upper organic phases were evaporated to dryness at 37 °C under a gentle stream of nitrogen gas. The residue was reconstituted with 100 μL of methanol and was injected 20 μL into the HPLC system. In addition, in order to perform mass spectrometry analyses, the residue was reconstituted with 150 μL of methanol-water (v/v, 1:1), and then centrifuged at 14000 rpm (17968 × g) for 15 min, the upper liquid was transferred into sample vials and 10 μL was injected for UPLC-QTOF/MS analysis.
The pharmacokinetic parameters of GLB were calculated by a non-compartmental pharmacokinetic analysis method using Drug and Statistical Version 3.0 (DAS 3.0) software (the Mathematical Pharmacology Committee, Chinese Pharmacological Society, China). The maximum peak concentration of the drug in plasma (Cmax) and the time to reach the maximum concentration (Tmax) were estimated from the experimental data. The area under the plasma concentration-time curves from 0 to infinity (i.e., AUC0-∞) and from 0 to 96 h (AUC0-96) were calculated by the trapezoidal summation. […]

[3] = tested on: human carcinoma cell lines including uterine cervix cancer cells, pulmonary adenocarcinoma cells, and prostate cancer cells (PC-3M); design: method as in earlier work; conditions: multiple human carcinoma cell lines; cited from earlier work
[4] = tested on: thymidine phosphorylase; conditions: cited from earlier work
[5] = male, Sprague-Dawley, rat, plasma, 100 mg/kg, rat, M1/M2 relative to GLB standard curve
[6] = male, Sprague-Dawley, rat, plasma, 100 mg/kg, 36 h after single oral GLB 100 mg/kg, rat, M1/M2 relative to GLB standard curve
[7] = male, Sprague-Dawley, rat, plasma, po, 100 mg/kg, n = 6, read-out: Tmax
[8] = male, Sprague-Dawley, n = 6, M1/M2 relative concentrations from GLB standard curve

Row | Compound | concentration at 0.5 h [2, 5] | concentration at 1 h [2, 5] | concentration at 2 h [2, 5] | concentration at 4 h [2, 5] | concentration at 6 h [2, 5] | concentration at 8 h [2, 5] | concentration at 12 h [2, 5] | concentration at 24 h [2, 5] | concentration at 36 h [2, 6] | concentration at 48 h [2, 5] | concentration at 72 h [2, 5] | concentration at 96 h [2, 5] | Tmax [2, 7] | half-life ([2]; male, Sprague-Dawley, n = 6) | AUC(0-inf) [2, 8] | AUC(0-t) [2, 8] | further results
1 | CC(=O)N1N=C(c2ccc(Br)cc2)OC12C1OC(C)(C)OC1COC21COC(C)(C)O1 (stereo not shown) [GLB, Fructose-based 3-acetyl-2,3-dihydro-1,3,4-oxadiazole] | 43 ± 151 ng/mL | 673 ± 65 ng/mL | 1400 ± 210 ng/mL | 1460 ± 210 ng/mL | 2780 ± 887 ng/mL | 1600 ± 656 ng/mL | 1470 ± 672 ng/mL | 262 ± 241 ng/mL | 139 ± 183 ng/mL | 58 ± 63 ng/mL | 11 ± 5 ng/mL | 16 ± 17 ng/mL | 6 h | 9.24 ± 4.74 h | 33500 ± 9050 ng·h/mL | 33300 ± 9100 ng·h/mL | Effect on tumor angiogenesis, growth and metastasis [1]: block the tumor angiogenesis, growth and metastasis in vivo; Plasma concentration ([2]; 36 h after single oral GLB 100 mg/kg, rat, M1/M2 relative to GLB standard curve): 140 ± 180 ng/mL; Cmax ([2]; male, Sprague-Dawley, n = 6, text, read-out: Cmax): 2780 ± 890 ng/mL; Cmax ([2]; n = 6, M1/M2 relative concentrations from GLB standard curve): 2780 ± 890 ng/mL; Effect on proliferation [3]: inhibited proliferation; Thymidine phosphorylase inhibition [4]: thymidine phosphorylase inhibitor
2 | CC(=O)N1N=C(c2ccc(Br)cc2)OC1(C1OC(C)(C)OC1C(=O)O)C1(O)COC(C)(C)O1 (stereo not shown) [M1] | 27 ± 14 ng/mL | 91 ± 21 ng/mL | 242 ± 55 ng/mL | 336 ± 59 ng/mL | 517 ± 113 ng/mL | 443 ± 137 ng/mL | 390 ± 114 ng/mL | 185 ± 182 ng/mL | 37 ± 15 ng/mL | 24 ± 20 ng/mL | 15 ± 9 ng/mL | 25 ± 11 ng/mL | 6 h | 11.3 ± 5.94 h | 10000 ± 3340 ng·h/mL | 9660 ± 3380 ng·h/mL | Cmax ([2]; male, Sprague-Dawley, n = 6, M1/M2 relative concentrations from GLB standard curve, read-out: Cmax): 540 ± 100 ng/mL; Tmax ([2]; n = 6): 7.33 ± 2.73 h

From PMC4493701, “Quantitative and qualitative analysis of the novel antitumor 1,3,4-oxadiazole derivative (GLB) and its metabolites using HPLC-UV and UPLC-QTOF-MS” (Scientific Reports, 2015)
